Source: patent US7138361B2, “Herbicidal heterocycles” (E. I. du Pont de Nemours and Company, priority 2000, dated 2006)

Legend:
Type in all cases: in vivo
[1] = system: barnyardgrass (Echinochloa crus-galli); test: Test B preemergence
Summary of the method: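 Visual injury scores, 0 = no effect to 100 = complete control, assigned against controls after 13 to 15 days in the greenhouse. Compounds formulated in non-phytotoxic solvent plus surfactant and applied to soil after planting (pre) or onto foliage of 1- to 4-leaf plants (post).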

[2] = system: Nightshade; test: Test C preemergence
[3] = system: bermudagrass (Cynodon dactylon); test: Test C preemergence
Summary of the method: (§1)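 Formulation: non-phytotoxic solvent mix incl. surfactant. Pre: applied right after planting. Post: 1–4-leaf seedlings. Read: visual 0–100, day 12–14, greenhouse.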

[4] = system: cocklebur (Xanthium strumarium); test: Test C preemergence
Summary of the method: as §1

[5] = system: corn (Zea mays); test: Test C preemergence
Summary of the method: as §1

[6] = system: crabgrass (Digitaria sanguinalis); test: Test C preemergence
Summary of the method: as §1

[7] = system: giant foxtail (Setaria faberii); test: Test C preemergence
Summary of the method: as §1

[8] = system: goosegrass (Eleusine indica); test: Test C preemergence
Summary of the method: as §1

[9] = system: johnsongrass (Sorghum halepense); test: Test C preemergence
Summary of the method: as §1

[10] = system: kochia (Kochia scoparia); test: Test C preemergence
Summary of the method: as §1

[11] = system: lambsquarters (Chenopodium album); test: Test C preemergence
Summary of the method: as §1

[12] = system: morningglory (Ipomoea hederacea); test: Test C preemergence
Summary of the method: as §1

[13] = system: pigweed (Amaranthus retroflexus); test: Test C preemergence
Summary of the method: as §1

[14] = system: soybean (Glycine max); test: Test C preemergence
Summary of the method: as §1

[15] = system: velvetleaf (Abutilon theophrasti); test: Test C preemergence
Summary of the method: as §1

[16] = system: woolly cupgrass (Eriochloa villosa); test: Test C preemergence
Summary of the method: as §1

[17] = system: yellow nutsedge (Cyperus esculentus); test: Test C preemergence
Summary of the method: as §1

[18] = system: Nightshade; test: Test C preemergence; conditions: Rate 500 g/ha, visual evaluation after 12 to 14 days
[19] = system: Sunflower; test: Test C preemergence; conditions: Rate 500 g/ha, visual evaluation after 12 to 14 days
[20] = Rate 125 g/ha, scale 0 to 100, 0 no effect, 100 complete control
[21] = preemergence, Rate 62 g/ha, scale 0 to 100
[22] = preemergence, Rate 500 g/ha, visual evaluation after 12 to 14 days
[23] = preemergence, Rate 250 g/ha, scale 0 to 100, 0 no effect, 100 complete control

## CCC(CC)c1ccn(C2OCN(c3cccc(OC(F)F)c3)C2=O)n1 (stereo not shown) [Compound 131]
[1]; Preemergence, Rate 500 g/ha, scale 0 to 100, 0 no effect, 100 complete control
  Plant response rating, Barnyardgrass: 100
[1]; preemergence, Rate 125 g/ha, scale of 0 to 100 where 0 is no effect and 100 is complete control, 13 to 15 days
  Plant response rating, Barnyardgrass: 100
[2]; Rate 62 g/ha, scale 0 to 100
  Plant response rating, Nightshade: 90
[2]; [20]
  Plant response rating, Nightshade: 100
[2]; Rate 250 g/ha, scale 0 to 100, 0 no effect, 100 complete control
  Plant response rating, Nightshade: 100
[3]; [20]
  Plant response rating, Bermudagrass: 100
[3]; [21]
  Plant response rating, Bermudagrass: 100
[3]; [22]
  Plant response rating (0 to 100 where 0 is no effect and 100 is complete control), Bermudagrass: 100
[3]; [23]
  Plant response rating, Bermudagrass: 100
[4]; [20]
  Plant response rating, Cocklebur: 0
[4]; [21]
  Plant response rating, Cocklebur: 0
[4]; [22]
  Plant response rating (0 to 100), Cocklebur: 30
[4]; [23]
  Plant response rating, Cocklebur: 30
[5]; [20]
  Plant response rating, Corn: 100
[5]; [21]
  Plant response rating, Corn: 100
[5]; [22]
  Plant response rating (0 to 100), Corn: 100
[5]; [23]
  Plant response rating, Corn: 100
[6]; [20]
  Plant response rating, Crabgrass: 100
[6]; [21]
  Plant response rating, Crabgrass: 100
[6]; [22]
  Plant response rating (0 to 100), Crabgrass: 100
[6]; [23]
  Plant response rating, Crabgrass: 100
[7]; [20]
  Plant response rating, Foxtail, Giant: 100
[7]; [21]
  Plant response rating, Foxtail, Giant: 90
[7]; [22]
  Plant response rating (0 to 100), Foxtail, Giant: 100
[7]; [23]
  Plant response rating, Foxtail, Giant: 100
[8]; [20]
  Plant response rating, Goosegrass: 100
[8]; [21]
  Plant response rating, Goosegrass: 100
[8]; [22]
  Plant response rating (0 to 100), Goosegrass: 100
[8]; [23]
  Plant response rating, Goosegrass: 100
[9]; [20]
  Plant response rating, Johnsongrass: 70
[9]; [21]
  Plant response rating, Johnsongrass: 30
[9]; [22]
  Plant response rating (0 to 100), Johnsongrass: 100
[9]; [23]
  Plant response rating, Johnsongrass: 80
[10]; [20]
  Plant response rating, Kochia: 100
[10]; [21]
  Plant response rating, Kochia: 100
[10]; [22]
  Plant response rating (0 to 100), Kochia: 100
[10]; [23]
  Plant response rating, Kochia: 100
[11]; [20]
  Plant response rating, Lambsquarters: 100
[11]; [21]
  Plant response rating, Lambsquarters: 100
[11]; [22]
  Plant response rating (0 to 100), Lambsquarters: 100
[11]; [23]
  Plant response rating, Lambsquarters: 100
[12]; [20]
  Plant response rating, Morningglory: 60
[12]; [21]
  Plant response rating, Morningglory: 0
[12]; [22]
  Plant response rating (0 to 100), Morningglory: 90
[12]; [23]
  Plant response rating, Morningglory: 90
[13]; [20]
  Plant response rating, Pigweed: 90
[13]; [21]
  Plant response rating, Pigweed: 90
[13]; [22]
  Plant response rating (0 to 100), Pigweed: 100
[13]; [23]
  Plant response rating, Pigweed: 100
[14]; [20]
  Plant response rating, Soybean: 0
[14]; [21]
  Plant response rating, Soybean: 0
[14]; [22]
  Plant response rating (0 to 100), Soybean: 40
[14]; [23]
  Plant response rating, Soybean: 40
[15]; [20]
  Plant response rating, Velvetleaf: 30
[15]; [21]
  Plant response rating, Velvetleaf: 20
[15]; [22]
  Plant response rating (0 to 100), Velvetleaf: 70
[15]; [23]
  Plant response rating, Velvetleaf: 70
[16]; [20]
  Plant response rating, Cupgrass, Woolly: 100
[16]; [21]
  Plant response rating, Cupgrass, Woolly: 100
[16]; [22]
  Plant response rating (0 to 100), Cupgrass, Woolly: 100
[16]; [23]
  Plant response rating, Cupgrass, Woolly: 100
[17]; [20]
  Plant response rating, Nutsedge: 90
[17]; [21]
  Plant response rating, Nutsedge: 0
[17]; [22]
  Plant response rating (0 to 100), Nutsedge: 100
[17]; [23]
  Plant response rating, Nutsedge: 90
[18]
  Plant response rating (0 to 100), Nightshade: 100
[19]
  Plant response rating (0 to 100), Sunflower: 20
